# From patent US9624182B2, “Compounds as lysophosphatidic acid receptor antagonists” (Amira Pharmaceuticals, Inc., priority 2009, dated 2017)
# Target: T1, human LPA1 (Homo sapiens, UniProt Q92633)
# T1 construct: the full-length cDNA for human LPA1 was obtained by PCR of the reverse transcription reaction; expressed in transfected cells
# Test: LPA1 calcium flux assay
# Type: cell-based
# Conditions: CHO cells expressing human LPA1, stimulated with 10 nM LPA; read-out: HLPA1 Ca Flux IC50
# Summary of the method: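 CHO cells stably expressing cloned human LPA1, serum-starved overnight, loaded with Calcium 4 dye 1 h at 37 °C in HBSS/20 mM Hepes with 0.3% fatty-acid-free HSA. Compounds preincubated 30 min at room temperature, then cells stimulated with 10 nM LPA; intracellular Ca2+ read by fluorescence. IC50 from titration curves.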
# T1 sequence (Q92633 whole entry): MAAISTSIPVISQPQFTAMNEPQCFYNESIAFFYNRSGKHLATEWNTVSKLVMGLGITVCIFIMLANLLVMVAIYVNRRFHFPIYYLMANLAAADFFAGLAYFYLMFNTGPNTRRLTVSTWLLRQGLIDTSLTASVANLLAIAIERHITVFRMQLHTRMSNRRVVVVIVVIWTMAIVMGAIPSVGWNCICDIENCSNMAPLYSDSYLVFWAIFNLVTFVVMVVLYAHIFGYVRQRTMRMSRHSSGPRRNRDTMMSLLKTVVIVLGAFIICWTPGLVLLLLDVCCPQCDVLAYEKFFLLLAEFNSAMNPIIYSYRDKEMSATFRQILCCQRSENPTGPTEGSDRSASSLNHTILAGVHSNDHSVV
row,Compound,IC50 [µM]
1,"Cc1noc(-c2ccc(-c3ccc(C4(C(=O)O)CC4)cc3)cc2)c1C(O)C(F)(F)CCc1ccccc1 (single isomer, unassigned) [Compound 1-254, 1-{4′-[4-(2,2-Difluoro-1-hydroxy-4-phenyl-butyl)-3-methyl-isoxazol-5-yl]-biphenyl-4-yl}-cyclopropanecarboxylic acid]",0.3 to 1
2,"Cc1noc(-c2ccc(-c3ccc(C4(C(=O)O)CC4)cc3)cc2)c1NC(C)c1cc2ccccc2s1 (centres unmarked) [Compound 1-284, 1-{4′-[4-(1-Benzo[b]thiophen-2-yl-ethylamino)-3-methyl-isoxazol-5-yl]-biphenyl-4-yl}-cyclopropanecarboxylic acid]",< 0.3
3,"Cc1noc(-c2ccc(-c3ccc(C4(C(=O)O)CC4)cc3)cc2)c1C(O)CCCc1ccncc1 (centres unmarked) [Compound 1-261, 1-{4′-[4-(1-Hydroxy-4-pyridin-4-yl-butyl)-3-methyl-isoxazol-5-yl]-biphenyl-4-yl}-cyclopropanecarboxylic acid]",< 0.3
4,"Cc1noc(-c2ccc(-c3ccc(C4(C(=O)O)CC4)cc3)cc2)c1C(O)C/C=C/c1ccccc1 (centres unmarked) [Compound 1-115, 1-{4′-[4-((E)-1-Hydroxy-4-phenyl-but-3-enyl)-3-methyl-isoxazol-5-yl]-biphenyl-4-yl}-cyclopropanecarboxylic acid]",< 0.3
5,"Cc1noc(-c2ccc(-c3ccc(C(=O)CCC(=O)O)cc3)cc2)c1C(O)CCCc1ccccc1 (centres unmarked) [Compound 1-245, 4-{4′-[4-(1-Hydroxy-4-phenyl-butyl)-3-methyl-isoxazol-5-yl]-biphenyl-4-yl}-4-oxo-butyric acid]",1 to 50
6,"Cc1noc(-c2ccc(-c3ccc(C4(C(=O)O)CC4)cc3)cc2)c1C(=O)C[S+]([O-])Cc1ccccc1 (centres unmarked) [Compound 1-202, 1-{4′-[3-Methyl-4-(2-phenylmethanesulfinyl-acetyl)-isoxazol-5-yl]-biphenyl-4-yl}-cyclopropanecarboxylic acid]",1 to 50
7,"CCN(Cc1c(C)noc1-c1ccc(-c2ccc(C3(C(=O)O)CC3)cc2)cc1)C[C@H](C)c1ccccc1 [Compound 1-104, 1-[4′-(4-{[Ethyl-((R)-2-phenyl-propyl)-amino]-methyl}-3-methyl-isoxazol-5-yl)-biphenyl-4-yl]-cyclopropanecarboxylic acid]",< 0.3
8,"Cc1noc(-c2ccc(-c3ccc(C4(C(=O)O)CC4)cc3)cc2)c1CN(C)CC(C)c1ccccc1 (centres unmarked) [Compound 1-87, 1-[4′-(3-Methyl-4-{[methyl-(2-phenyl-propyl)-amino]-methyl}-isoxazol-5-yl)-biphenyl-4-yl]-cyclopropanecarboxylic acid]",< 0.3
9,"Cc1noc(-c2ccc(-c3ccc(C(Cc4ccccc4)C(=O)O)cc3)cc2)c1C(O)CCCc1ccccc1 (centres unmarked) [Compound 1-188, 2-{4′-[4-(1-Hydroxy-4-phenyl-butyl)-3-methyl-isoxazol-5-yl]-biphenyl-4-yl}-3-phenyl-propionic acid]",< 0.3
10,"Cc1noc(-c2ccc(-c3ccc(C4(C(=O)O)CC4)cc3)cc2)c1/C=C\CCc1ccccc1 [Compound 1-94, 1-{4′-[3-Methyl-4-((Z)-4-phenyl-but-1-enyl)-isoxazol-5-yl]-biphenyl-4-yl}-cyclopropanecarboxylic acid]",< 0.3
11,"Cc1noc(-c2ccc(-c3ccc(C4(C(=O)O)CC4)cc3)cc2)c1NC(C)CCc1ccccc1 (single isomer, unassigned) [Compound 1-220, 1-{4′-[3-Methyl-4-(1-methyl-3-phenyl-propylamino)-isoxazol-5-yl]-biphenyl-4-yl}-cyclopropanecarboxylic acid]",< 0.3
12,"Cc1noc(-c2ccc(-c3ccc(C4(C(=O)O)CC4)cc3)cc2)c1C(O)CCCc1ccccc1 (single isomer, unassigned) [Compound 1-156, 1-{4′-[4-(1-Hydroxy-4-phenyl-butyl)-3-methyl-isoxazol-5-yl]-biphenyl-4-yl}-cyclopropanecarboxylic acid]",< 0.3
13,"Cc1noc(-c2ccc(-c3ccc(C4(C(=O)O)CC4)cc3)cc2)c1CCC(=O)NCc1ccccc1 [Compound 1-42, 1-{4′-[4-(2-Benzylcarbamoyl-ethyl)-3-methyl-isoxazol-5-yl]-biphenyl-4-yl}-cyclopropanecarboxylic acid]",1 to 50
14,"Cc1noc(-c2ccc(-c3ccc(C4(C(=O)O)CC4)cc3)cc2)c1CN(C)C(=O)Cc1ccccc1 [Compound 1-71, 1-(4′-{3-Methyl-4-[(methyl-phenylacetyl-amino)-methyl]-isoxazol-5-yl}-biphenyl-4-yl)-cyclopropanecarboxylic acid]",0.3 to 1
15,"COc1cccc(SCC(O)c2c(C)noc2-c2ccc(-c3ccc(C4(C(=O)NS(C)(=O)=O)CC4)cc3)cc2)c1 (centres unmarked) [Compound 2-14, N-[1-(4′-{4-[1-Hydroxy-2-(3-methoxy-phenylsulfanyl)-ethyl]-3-methyl-isoxazol-5-yl}-biphenyl-4-yl)-cyclopropanecarbonyl]-methanesulfonamide]",0.3 to 1
16,"Cc1noc(-c2ccc(-c3ccc(C4(CC(=O)O)CC4)cc3)cc2)c1NC(C)CC(C)(C)c1ccccc1 (centres unmarked) [Compound 1-287, (1-{4′-[4-(1,3-Dimethyl-3-phenyl-butylamino)-3-methyl-isoxazol-5-yl]-biphenyl-4-yl}-cyclopropyl)-acetic acid]",< 0.3
17,"Cc1noc(-c2ccc(-c3ccc(C4(C(=O)O)CC4)cc3)cc2)c1CO [Compound 1-152, 1-[4′-(4-Hydroxymethyl-3-methyl-isoxazol-5-yl)-biphenyl-4-yl]-cyclopropanecarboxylic acid]",1 to 50
18,"Cc1noc(-c2ccc(-c3ccc(C4(CC(=O)O)CC4)cc3)cc2)c1NC(C)CCc1cccc(F)c1 (centres unmarked) [Compound 1-185, [1-(4′-{4-[3-(3-Fluoro-phenyl)-1-methyl-propylamino]-3-methyl-isoxazol-5-yl}-biphenyl-4-yl)-cyclopropyl]-acetic acid]",< 0.3
19,"Cc1noc(-c2ccc(-c3ccc(C4(C(=O)O)CC4)cc3)cc2)c1CCC(=O)N(C)[C@H](C)c1ccccc1 [Compound 1-105, 1-[4′-(3-Methyl-4-{2-[(R)-methyl-(1-phenyl-ethyl)-carbamoyl]-ethyl}-isoxazol-5-yl)-biphenyl-4-yl]-cyclopropanecarboxylic acid]",< 0.3
20,"Cc1noc(-c2ccc(-c3ccc(C4(C(=O)O)CC4)cc3)cc2)c1CCOCc1ccncc1 [Compound 1-77, 1-(4′-{3-Methyl-4-[2-(pyridin-4-ylmethoxy)-ethyl]-isoxazol-5-yl}-biphenyl-4-yl)-cyclopropanecarboxylic acid]",> 50
21,"Cc1noc(-c2ccc(-c3ccc(C4(C(=O)O)CC4)cc3)cc2)c1CC(=O)N[C@H]1CCc2ccccc21 [Compound 1-99, 1-{4′-[4-((S)-Indan-1-ylcarbamoylmethyl)-3-methyl-isoxazol-5-yl]-biphenyl-4-yl}-cyclopropanecarboxylic acid]",< 0.3

# Further lines, results first:
row,IC50 [µM],Compound
1,< 0.3,"Cc1noc(-c2ccc(-c3ccc(C4(C(=O)O)CC4)cc3)cc2)c1C(O)CN (centres unmarked) [Compound 1-190, 1-{4′-[4-(2-Amino-1-hydroxy-ethyl)-3-methyl-isoxazol-5-yl]-biphenyl-4-yl}-cyclopropanecarboxylic acid]"
2,1 to 50,"Cc1noc(-c2ccc(-c3ccc(C4(C(=O)O)CC4)cc3)cc2)c1CCOCc1cccnc1 [Compound 1-76, 1-(4′-{3-Methyl-4-[2-(pyridin-3-ylmethoxy)-ethyl]-isoxazol-5-yl}-biphenyl-4-yl)-cyclopropanecarboxylic acid]"
3,< 0.3,"Cc1noc(-c2ccc(-c3ccc(C4(CC(=O)O)CC4)cc3)cc2)c1C(O)CCCCc1ccc(Cl)c(Cl)c1 (centres unmarked) [Compound 1-208, [1-(4′-{4-[5-(3,4-Dichloro-phenyl)-1-hydroxy-pentyl]-3-methyl-isoxazol-5-yl}-biphenyl-4-yl)-cyclopropyl]-acetic acid]"
4,1 to 50,"CC(=O)NC(CCCc1ccccc1)c1c(C)noc1-c1ccc(-c2ccc(C3(CC(=O)O)CC3)cc2)cc1 (centres unmarked) [Compound 1-256, (1-{4′-[4-(1-Acetylamino-4-phenyl-butyl)-3-methyl-isoxazol-5-yl]-biphenyl-4-yl}-cyclopropyl)-acetic acid]"
5,< 0.3,"Cc1noc(-c2ccc(-c3ccc(C4(CC(=O)O)CC4)cc3)cc2)c1CC(F)(F)CCc1ccccc1 [Compound 1-175, (1-{4′-[4-(2,2-Difluoro-4-phenyl-butyl)-3-methyl-isoxazol-5-yl]-biphenyl-4-yl}-cyclopropyl)-acetic acid]"
6,1 to 50,"Cc1noc(-c2ccc(-c3ccc(C4(C(=O)O)CC4)cc3)cc2)c1C(=O)CCCc1ccccc1 [Compound 1-124, 1-{4′-[3-Methyl-4-(4-phenyl-butyryl)-isoxazol-5-yl]-biphenyl-4-yl}-cyclopropanecarboxylic acid]"
7,0.3 to 1,"Cc1noc(-c2ccc(-c3ccc(CCC(=O)O)cc3)cc2)c1C(O)COCc1cccc(C(F)(F)F)c1 (centres unmarked) [Compound 1-242, 3-(4′-{4-[1-Hydroxy-2-(3-trifluoromethyl-benzyloxy)-ethyl]-3-methyl-isoxazol-5-yl}-biphenyl-4-yl)-propionic acid]"
8,< 0.3,"Cc1noc(-c2ccc(-c3ccc(C4(CC(=O)O)CC4)cc3)cc2)c1CSCCc1ccccc1 [Compound 1-125, {1-[4′-(3-Methyl-4-phenethylsulfanylmethyl-isoxazol-5-yl)-biphenyl-4-yl]-cyclopropyl}-acetic acid]"
9,1 to 50,"Cc1noc(-c2ccc(-c3ccc(C4(C(=O)O)CC4)cc3)cc2)c1CCC(=O)N(C)C(C)(C)c1ccccc1 [Compound 1-118, 1-[4′-(3-Methyl-4-{2-[methyl-(1-methyl-1-phenyl-ethyl)-carbamoyl]-ethyl}-isoxazol-5-yl)-biphenyl-4-yl]-cyclopropanecarboxylic acid]"
10,1 to 50,COc1ccc(CC(C)Nc2c(C)noc2-c2ccc(-c3ccc(C4(C(=O)O)CC4)cc3)cc2)cc1 (centres unmarked) [Compound 1-237]
11,> 50,"Cc1noc(-c2ccc(-c3ccc(C4(C(=O)O)CC4)cc3)cc2)c1NC(=O)NCC(F)(F)F [Compound 1-13, 1-(4′-{3-Methyl-4-[3-(2,2,2-trifluoro-ethyl)-ureido]-isoxazol-5-yl}-biphenyl-4-yl)-cyclopropanecarboxylic acid]"
